Key:
[1] = test system: stratum corneum of pig skin; details: stratum corneum immersed in 5% solution; weight at 90% relative humidity vs dry weight at 0% relative humidity
From the text: The epidermis of full thickness pig skin (Animal Technologies, Tyler, Tex.) was removed using a Packard Instruments dermatome, and the stratum corneum was removed via trypsin digestion. Pieces of stratum corneum were then immersed in millipore water, a 5% choline chloride (Aldrich Chemical, Milwaukee, Wis.), or a 5% glycerin solution. Using a dynamic vapour sorption meter (Surface Measurement Systems, Coopersburg, Pa.), the skin was equilibrated under a 0% relative humidity environment until the change in weight varied no more than 0.005% per min. This weight was recorded as the dry weight. The relative humidity was then increased to 90%. The skin was equilibrated at this humidity until the change in weight varied no more than 0.005% per min. This weight was, likewise, recorded and the % water uptake was calculated.

[2] = test system: Full thickness Yucatan swine skin; details: (3H3C)-choline in 25% shower gel solution (100 mg choline chloride per 20 ml); two 5 minute applications, each rinsed with 10 ml distilled water
Procedure: The radiolabelling experiment described in this example was carried out to quantify the amount of choline that could adhere to the skin following a water rinse. Full thickness Yucatan swine skin (Charles River, Inc., Wilmington, Mass.) was mounted (dermis side down) onto a special sample holder, the dimensions of which were previously described in U.S. Pat. No. 4,836,014. This sample holder exposed approximately 4.91 cm^2 of the skin. A 1 ml aliquot of (^3H3C)-choline (American Radiolabel Chemicals, Inc., St. Louis, Mo.) containing shower gel was next applied to the surface of the exposed skin. […] After five minutes had elapsed, the shower gel was removed, and the surface of the skin was rinsed with 10 ml of distilled water. A second 1 ml aliquot of the (^3H3C)-choline containing shower gel was then reapplied to the skin. Again, after a 5 minute exposure time, the shower gel was removed and the skin rinsed with 10 ml of distilled water. The skin sample was then removed from its sample holder and air-dried for 10 minutes. Four 4 mm diameter punches were collected from each piece of treated skin, oxidized in a Packard oxidizer, and counted in a Packard 2000 Tri-carb liquid scintillation analyzer (Packard Instruments Inc., Downers Grove, Ill.). To obtain the specific activity, 0.1 ml of the (^3H3C)-choline containing shower gel was counted in the Packard 2000 analyzer.

SMILES | % Water Uptake [1] | amount of choline remaining on the skin following a water rinse [2]
C[N+](C)(C)CCO.[Cl-] [5% Choline, choline chloride] | 89 ± 14% | 33 μg/cm^2
OCC(O)CO [5% Glycerin, glycerin, reference compound] | 75 ± 6% | –

From patent US20020010113A1, “Composition” (Colgate-Palmolive Company, priority 1999, published 2002)
